Literature values as cited in article PMC10093509, “Diagnosis and Treatment of Peripheral and Cranial Nerve Tumors with Expert Recommendations: An EUropean Network for RAre CANcers (EURACAN) Initiative” (Cancers, 2023).
Read-outs that look alike come from different tables or passages of the source. Values belong to the molecule of their own block, whether it stands above or below them. *1 amine or outer side, *2 acyl side, *3 side chain or, on linkers, in order; H or OH if unused. Where a SMILES comes first, the peptide text is derived from it. Bridges are numbered along the chain shown (N, C = ends). Roman numbers before positions name the chains, in order. [ ]: non-standard residue; d: D form. Actinocin(9to1) = Cc1c2oc3c(C)ccc(C(=O)[*:1])c3nc-2c(C(=O)[*:2])c(N)c1=O; NMeV = CN[C@H](C(=O)O)C(C)C; Sar = CNCC(=O)O

Experiments:
[1] = tested on: progressive or symptomatic inoperable PNs
[2] = tested on: progressive and/or symptomatic PNs; parameters: method as in PMID 33507822
MPNST [3] = tested on: MPNST; parameters: method as in PMID 27502708
[4] = tested on: NF1 PNs, progressive or causing significant neurological symptoms
MPNST [5] = tested on: MPNST; parameters: method as in PMID 20838322; conditions: alone or in combination
MPNST [6] = tested on: MPNST; parameters: method as in PMID 26710211; conditions: 14 MPNST patients
MPNST [7] = tested on: MPNST; parameters: method as in PMID 24618336
[8] = tested on: MPNST harboring a novel SNRNP70-NTRK3 fusion gene
MPNST [9] = tested on: MPNST; parameters: method as in doi:10.1200/jco.2006.24.18_suppl.9518
[10] = tested on: plexiform neurofibromas (PN) of neurofibromatosis; parameters: method as in PMID 23099009, PMID 24500418, PMID 24753394, PMID 24851266, PMID 25314964; conditions: initial studies
MPNST [11] = tested on: MPNST; parameters: method as in PMID 19451433; conditions: seven MPNST patients
advanced MPNST = tested on: advanced MPNST; parameters: method as in PMID 32638374
[12] = tested on: unresectable or metastatic MPNST; parameters: method as in PMID 33512749; conditions: one patient with NF1-associated MPNST; selinexor alone
NF1 inoperable PNs [13] = tested on: NF1 inoperable PNs; parameters: method as in PMID 28029918
NF1 inoperable PNs [14] = tested on: NF1 inoperable PNs
[15] = tested on: unresectable, symptomatic, and progressive PNs; conditions: adults
spinal PNs = tested on: spinal PNs; parameters: method as in PMID 35467749, PMID 32939452
asymptomatic PNs = tested on: asymptomatic PNs; parameters: method as in PMID 35467749; conditions: median 41 cycles (2–67)
MPNST [16] = tested on: MPNST; parameters: method as in PMID 19451436; conditions: 15 patients
NF-1-associated PN = tested on: NF-1-associated PN; parameters: method as in doi:10.1200/JCO.2018.36.15_suppl.10504
[17] = tested on: NF-1-associated PNs or low-grade gliomas; parameters: method as in PMID 36015104; conditions: meta-analysis
[18] = tested on: progressive VS associated with NF2; parameters: method as in PMID 22805104
[19] = tested on: progressive vestibular schwannomas (VS) associated with NF2; parameters: method as in PMID 26976425; conditions: 7.5 mg/kg every 3 weeks
NF1-associated MPNST = tested on: NF1-associated MPNST; parameters: method as in PMID 35100687; conditions: one patient
[20] = tested on: sporadic metastatic MPNST; parameters: method as in PMID 31383651; conditions: one patient; following four cycles

Molecule: COc1cc2nccc(Oc3ccc(NC(=O)C4(C(=O)Nc5ccc(F)cc5)CC4)cc3)c2cc1OC [Cabozantinib]
patients who experienced grade 3 adverse events [1]: 38% | quality of life [1]: no significant improvement | ORR ([1]; NF-105): 42% | intensity of pain ([1]; after four cycles, patients who achieved a PR): early decrease | tumor volume reduction ([1]; from 2.8% to −38.0%): 15%

Molecule: O=C(NOC[C@H](O)CO)c1ccc(F)c(F)c1Nc1ccc(I)cc1F [Mirdametinib]
median reduction in tumor volume [2]: 17.1% | most frequent AEs [2]: acneiform rash, fatigue, and nausea | patient-reported outcomes over treatment [2]: improvement

Molecule: COc1cc(Nc2ncc3c(n2)-c2ccc(Cl)cc2C(c2c(F)cccc2OC)=NC3)ccc1C(=O)O [alisertib]
OS (MPNST [3]): 69 weeks | PFS (MPNST [3]): 13 weeks

discontinuation of treatment (patients) [4]: 2 patients
Molecule: Cn1cnc2c(F)c(Nc3ccc(Br)cc3F)c(C(=O)NOCCO)cc21 [binimetinib]
dose reduction required for grade 3 adverse events (patients) [4]: 13 patients | PR ([4]; 14 out of 19 patients): 73.7%

Molecule: N.N.O=C([O-])C1(C(=O)[O-])CCC1.[Pt+2] [carboplatin]
results in treatment of MPNST (MPNST [5]): disappointing results

Molecule: N.N.[Cl][Pt][Cl] [cisplatin]
results in treatment of MPNST (MPNST [5]): disappointing results

Molecule: O=P1(N(CCCl)CCCl)NCCCO1 (stereo not shown) [cyclophosphamide]
results in treatment of MPNST (MPNST [5]): disappointing results

Molecule: Cc1c2oc3c(C)ccc(C(=O)N[C@@H]4C(=O)N[C@H](C(C)C)C(=O)N5CCC[C@H]5C(=O)N(C)CC(=O)N(C)[C@@H](C(C)C)C(=O)O[C@@H]4C)c3nc-2c(C(=O)N[C@@H]2C(=O)N[C@H](C(C)C)C(=O)N3CCC[C@H]3C(=O)N(C)CC(=O)N(C)[C@@H](C(C)C)C(=O)O[C@@H]2C)c(N)c1=O [dactinomycin] (I: T[dV]P[Sar][NMeV] / II: T[dV]P[Sar][NMeV]; ester I:1-I:C, II:1-II:C; linker I:N-II:N via Actinocin(9to1))
results in treatment of MPNST (MPNST [5]): disappointing results

Molecule: Cc1nc(Nc2ncc(C(=O)Nc3c(C)cccc3Cl)s2)cc(N2CCN(CCO)CC2)n1 [dasatinib]
ORR (MPNST [6]): did not show any ORR

Molecule: COc1cccc2c1C(=O)c1c(O)c3c(c(O)c1C2=O)C[C@@](O)(C(=O)CO)C[C@@H]3O[C@H]1C[C@H](N)[C@H](O)[C@H](C)O1 [doxorubicin]
median OS (MPNST [7]): 51 weeks | median PFS (MPNST [7]): 16 weeks

Molecule: CN1CCN(c2ccc(C(=O)Nc3n[nH]c4ccc(Cc5cc(F)cc(F)c5)cc34)c(NC3CCOCC3)c2)CC1 [entrectinib]
response ([8]; one heavily pretreated patient): dramatic response | duration of response ([8]; one patient): 10 months

Molecule: C#Cc1cccc(Nc2ncnc3cc(OCCOC)c(OCCOC)cc23)c1 [erlotinib]
OS (MPNST [9]): 48 weeks | PFS (MPNST [9]): 24 weeks

Molecule: CO[C@H]1C[C@@H]2CC[C@@H](C)[C@@](O)(O2)C(=O)C(=O)N2CCCC[C@H]2C(=O)O[C@H]([C@H](C)C[C@@H]2CC[C@@H](OCCO)[C@H](OC)C2)CC(=O)[C@H](C)/C=C(\C)[C@@H](O)[C@@H](OC)C(=O)[C@H](C)C[C@H](C)/C=C/C=C/C=C/1C [everolimus]
benefit in PN [10]: limited benefits

Molecule: Cc1ccc(NC(=O)c2ccc(CN3CCN(C)CC3)cc2)cc1Nc1nccc(-c2cccnc2)n1 [imatinib]
best response (MPNST [11]): stable disease as the best response in one patient | median PFS (MPNST [11]): 1.9 months | benefit in PN [10]: limited benefits

Molecule: c1c[nH]cn1 [imidazole]
results in treatment of MPNST (MPNST [5]): disappointing results

Molecule: Cc1ccc(Nc2nccc(N(C)c3ccc4c(C)n(C)nc4c3)n2)cc1S(N)(=O)=O [pazopanib]
OS (advanced MPNST): 10.6 months | PFS (advanced MPNST): 5.4 months | clinical benefit rate (advanced MPNST; at 12 weeks): 50%

Molecule: Cc1ccc(=O)n(-c2ccccc2)c1 [pirfenidone]
benefit in PN [10]: limited benefits

Molecule: O=C(/C=C\n1cnc(-c2cc(C(F)(F)F)cc(C(F)(F)F)c2)n1)NNc1cnccn1 [selinexor]
duration of disease stabilization [12]: 13.5 months

increased liver enzymes (patients) [15]: five | pancreatic enzyme elevation (patients) [15]: one | rash (patients) [15]: one
Molecule: Cn1cnc2c(F)c(Nc3ccc(Br)cc3Cl)c(C(=O)NOCCO)cc21 [selumetinib]
median reduction in tumor volume (NF1 inoperable PNs [13]; phase 1): 31% | stable disease (patients) (NF1 inoperable PNs [13]; phase 1): 2 | objective response rate (ORR) (NF1 inoperable PNs [13]; phase 1, 3–18 years): 71% | median time PR maintained (NF1 inoperable PNs [13]; range 6–42): 23 cycles | clinically meaningful improvement in child-reported interference of pain in daily functioning (NF1 inoperable PNs [14]; SPRINT): 38% | clinically meaningful improvement in overall health-related QoL (NF1 inoperable PNs [14]; SPRINT): 48% | median reduction in tumor volume (NF1 inoperable PNs [14]; SPRINT): 27% | ORR (NF1 inoperable PNs [14]; SPRINT, 50 patients): 68% | median progression-free survival (PFS) (NF1 inoperable PNs [14]; at the time of interim-analysis): not reached | toxicity (NF1 inoperable PNs [14]; children, creatine kinase increase, rash, paronychia, gastrointestinal toxicity): mostly mild and reversible | pain intensity [15]: decreased pain intensity | ORR ([15]; phase 2): 69% | tumor volume shrinkage as best response ([15]; phase 2): 22% | clinical benefit and radiological response with reduction of spinal canal distortion and/or spinal cord deformity (patients) (spinal PNs): 18/24 | patients achieving tumor shrinkage (asymptomatic PNs): 72%

Molecule: CO[C@H]1C[C@@H]2CC[C@@H](C)[C@@](O)(O2)C(=O)C(=O)N2CCCC[C@H]2C(=O)O[C@H]([C@H](C)C[C@@H]2CC[C@@H](O)[C@H](OC)C2)CC(=O)[C@H](C)/C=C(\C)[C@@H](O)[C@@H](OC)C(=O)[C@H](C)C[C@H](C)/C=C/C=C/C=C/1C [sirolimus]
benefit in PN [10]: limited benefits

Molecule: CNC(=O)c1cc(Oc2ccc(NC(=O)Nc3ccc(Cl)c(C(F)(F)F)c3)cc2)ccn1 [sorafenib]
radiological responses (MPNST [16]): absence of radiological responses

Molecule: Cn1cncc1[C@@](N)(c1ccc(Cl)cc1)c1ccc2c(c1)c(-c1cccc(Cl)c1)cc(=O)n2C [tipifarnib]
benefit in PN [10]: limited benefits

Molecule: CC(=O)Nc1cccc(-n2c(=O)n(C3CC3)c(=O)c3c(Nc4ccc(I)cc4F)n(C)c(=O)c(C)c32)c1 [trametinib]
duration of radiological response (NF-1-associated PN): more than 12 months | PR (NF-1-associated PN; 12 out of 26 patients, interim analysis): 46% | side effects (NF-1-associated PN; such as paronychia and rash): manageable | ORR [17]: 45.3% | disease control rate [17]: 99.8%

Molecule: CC[C@]1(O)C[C@H]2CN(CCc3c([nH]c4ccccc34)[C@@](C(=O)OC)(c3cc4c(cc3OC)N(C=O)[C@H]3[C@@](O)(C(=O)OC)[C@H](OC(C)=O)[C@]5(CC)C=CCN6CC[C@]43[C@@H]65)C2)C1 [vincristine]
results in treatment of MPNST (MPNST [5]): disappointing results

Molecule: bevacizumab
hearing and radiographic outcome [18]: remarkable improvement of hearing and objective radiographic responses | partial radiographic response with volume reduction of 20% or more (patients) ([19]; 6/14 patients): 43% | hearing improvement (patients) ([19]; NF2 patients with progressive VS): 36%

Molecule: interferon alfa-2b
benefit in PN [10]: limited benefits

Molecule: nivolumab
response (NF1-associated MPNST): prolonged PR

Molecule: pembrolizumab
response [20]: complete response
